Values joined by “and” are separate entries in the source; they are usually repeats but may differ in a detail not shown here. Identical values can stand only once. ± gives the uncertainty stated by the source.
Test: xn = mol fraction of the nth substance listed

Nc1ccccc1 + C1CCCCC1
Settings	viscosity
301.05 K, 101.32 kPa, x1 = 0.7073	1.9 ± 0.047 mPa·s
301.92 K, 101 kPa, x1 = 0.238	1.083 ± 0.014 mPa·s
302.2 K, 101 kPa, x1 = 0.592	1.621 ± 0.02 mPa·s
302.46 K, 101 kPa, x1 = 0.745	1.893 ± 0.024 mPa·s
302.5 K, 101 kPa, x1 = 0.63	1.651 ± 0.021 mPa·s
302.66 K, 101 kPa, x1 = 0.71	1.798 ± 0.022 mPa·s
302.76 K, 101 kPa, x1 = 0.337	1.185 ± 0.015 mPa·s
303 K, 101 kPa, x1 = 0.442	1.643 ± 0.076 mPa·s and 1.611 ± 0.046 mPa·s
303.02 K, 101 kPa, x1 = 0.442	1.57 ± 0.028 mPa·s
303.08 K, 101 kPa, x1 = 0.39	1.305 ± 0.018 mPa·s
303.09 K, 101 kPa, x1 = 0.442	1.539 ± 0.022 mPa·s
303.12 K, 101 kPa, x1 = 0.592	1.574 ± 0.02 mPa·s
303.15 K, 101 kPa, x1 = 0.442	1.496 ± 0.023 mPa·s
303.15 K, 101.32 kPa, x1 = 0.7073	1.79 ± 0.046 mPa·s
303.22 K, 101 kPa, x1 = 0.442	1.458 ± 0.02 mPa·s
303.26 K, 101 kPa, x1 = 0.745	1.847 ± 0.023 mPa·s
303.35 K, 101 kPa, x1 = 0.442	1.419 ± 0.018 mPa·s
303.39 K, 101 kPa, x1 = 0.39	1.275 ± 0.016 mPa·s
303.58 K, 101 kPa, x1 = 0.492	1.434 ± 0.018 mPa·s
303.61 K, 101 kPa, x1 = 0.442	1.386 ± 0.018 mPa·s
303.68 K, 101 kPa, x1 = 0.41	1.31 ± 0.017 mPa·s
303.76 K, 101 kPa, x1 = 0.442	1.366 ± 0.017 mPa·s
303.9 K, 101 kPa, x1 = 0.442	1.353 ± 0.017 mPa·s
303.92 K, 101 kPa, x1 = 0.39	1.238 ± 0.016 mPa·s
304.07 K, 101 kPa, x1 = 0.592	1.531 ± 0.019 mPa·s
304.09 K, 101 kPa, x1 = 0.745	1.808 ± 0.023 mPa·s
304.1 K, 101 kPa, x1 = 0.442	1.335 ± 0.017 mPa·s
304.25 K, 101 kPa, x1 = 0.71	1.731 ± 0.022 mPa·s
304.32 K, 101 kPa, x1 = 0.543	1.452 ± 0.018 mPa·s
304.38 K, 101 kPa, x1 = 0.442	1.32 ± 0.017 mPa·s
304.39 K, 101 kPa, x1 = 0.337	1.109 ± 0.014 mPa·s
304.42 K, 101 kPa, x1 = 0.39	1.215 ± 0.015 mPa·s
304.51 K, 101 kPa, x1 = 0.523	1.41 ± 0.018 mPa·s
304.53 K, 101 kPa, x1 = 0.492	1.373 ± 0.017 mPa·s
304.56 K, 101 kPa, x1 = 0.63	1.546 ± 0.019 mPa·s
304.58 K, 101 kPa, x1 = 0.442	1.302 ± 0.017 mPa·s
304.59 K, 101 kPa, x1 = 0.41	1.244 ± 0.016 mPa·s
304.64 K, 101 kPa, x1 = 0.462	1.334 ± 0.017 mPa·s
304.75 K, 101.32 kPa, x1 = 0.5628	1.51 ± 0.044 mPa·s
304.99 K, 101 kPa, x1 = 0.442	1.281 ± 0.016 mPa·s
305.01 K, 101 kPa, x1 = 0.745	1.77 ± 0.022 mPa·s
305.05 K, 101.32 kPa, x1 = 0.5628	1.48 ± 0.043 mPa·s
305.17 K, 101 kPa, x1 = 0.71	1.693 ± 0.021 mPa·s
305.24 K, 101 kPa, x1 = 0.442	1.268 ± 0.016 mPa·s
305.41 K, 101 kPa, x1 = 0.39	1.169 ± 0.015 mPa·s
305.51 K, 101 kPa, x1 = 0.592	1.466 ± 0.018 mPa·s
305.83 K, 101 kPa, x1 = 0.745	1.737 ± 0.022 mPa·s
305.91 K, 101 kPa, x1 = 0.442	1.236 ± 0.016 mPa·s
306.15 K, 101.32 kPa, x1 = 0.7073	1.65 ± 0.045 mPa·s
306.28 K, 101 kPa, x1 = 0.337	1.051 ± 0.013 mPa·s
306.33 K, 101 kPa, x1 = 0.462	1.247 ± 0.016 mPa·s
306.36 K, 101 kPa, x1 = 0.442	1.216 ± 0.015 mPa·s
306.36 K, 101 kPa, x1 = 0.492	1.292 ± 0.016 mPa·s
306.37 K, 101 kPa, x1 = 0.543	1.363 ± 0.017 mPa·s
306.39 K, 101 kPa, x1 = 0.63	1.481 ± 0.019 mPa·s
306.5 K, 101 kPa, x1 = 0.523	1.328 ± 0.017 mPa·s
306.54 K, 101 kPa, x1 = 0.41	1.163 ± 0.015 mPa·s
306.88 K, 101 kPa, x1 = 0.71	1.624 ± 0.02 mPa·s
307.09 K, 101 kPa, x1 = 0.745	1.683 ± 0.021 mPa·s
307.11 K, 101 kPa, x1 = 0.442	1.192 ± 0.015 mPa·s
307.79 K, 101 kPa, x1 = 0.592	1.39 ± 0.018 mPa·s
307.84 K, 101 kPa, x1 = 0.442	1.159 ± 0.015 mPa·s
308.04 K, 101 kPa, x1 = 0.492	1.235 ± 0.016 mPa·s
308.08 K, 101 kPa, x1 = 0.745	1.642 ± 0.021 mPa·s
308.26 K, 101 kPa, x1 = 0.41	1.103 ± 0.014 mPa·s
308.28 K, 101 kPa, x1 = 0.39	1.07 ± 0.014 mPa·s
308.35 K, 101 kPa, x1 = 0.337	0.993 ± 0.013 mPa·s
308.35 K, 101 kPa, x1 = 0.462	1.172 ± 0.015 mPa·s
308.36 K, 101 kPa, x1 = 0.543	1.292 ± 0.016 mPa·s
308.41 K, 101 kPa, x1 = 0.63	1.409 ± 0.018 mPa·s
308.43 K, 101 kPa, x1 = 0.523	1.261 ± 0.016 mPa·s
309.04 K, 101 kPa, x1 = 0.745	1.609 ± 0.02 mPa·s
309.11 K, 101 kPa, x1 = 0.442	1.122 ± 0.014 mPa·s
309.15 K, 101.32 kPa, x1 = 0.7073	1.53 ± 0.044 mPa·s
309.4 K, 101 kPa, x1 = 0.592	1.324 ± 0.017 mPa·s
309.69 K, 101 kPa, x1 = 0.71	1.52 ± 0.019 mPa·s
309.88 K, 101 kPa, x1 = 0.492	1.169 ± 0.015 mPa·s
310.04 K, 101 kPa, x1 = 0.745	1.57 ± 0.02 mPa·s
310.08 K, 101 kPa, x1 = 0.543	1.234 ± 0.016 mPa·s
310.21 K, 101 kPa, x1 = 0.337	0.953 ± 0.012 mPa·s
310.23 K, 101 kPa, x1 = 0.41	1.047 ± 0.013 mPa·s
310.32 K, 101 kPa, x1 = 0.442	1.09 ± 0.014 mPa·s
310.32 K, 101 kPa, x1 = 0.462	1.117 ± 0.014 mPa·s
310.41 K, 101 kPa, x1 = 0.523	1.2 ± 0.015 mPa·s
310.49 K, 101 kPa, x1 = 0.63	1.345 ± 0.017 mPa·s
311.23 K, 101 kPa, x1 = 0.745	1.534 ± 0.019 mPa·s
311.28 K, 101 kPa, x1 = 0.592	1.258 ± 0.016 mPa·s
311.35 K, 101 kPa, x1 = 0.39	0.995 ± 0.013 mPa·s
311.37 K, 101 kPa, x1 = 0.442	1.063 ± 0.014 mPa·s
311.64 K, 101 kPa, x1 = 0.492	1.12 ± 0.014 mPa·s
311.89 K, 101 kPa, x1 = 0.523	1.16 ± 0.015 mPa·s
311.98 K, 101 kPa, x1 = 0.71	1.439 ± 0.018 mPa·s
311.98 K, 101 kPa, x1 = 0.745	1.501 ± 0.019 mPa·s
312.01 K, 101 kPa, x1 = 0.462	1.067 ± 0.014 mPa·s
312.07 K, 101 kPa, x1 = 0.41	1.004 ± 0.013 mPa·s
312.11 K, 101 kPa, x1 = 0.337	0.919 ± 0.012 mPa·s
312.18 K, 101 kPa, x1 = 0.63	1.289 ± 0.016 mPa·s
312.19 K, 101 kPa, x1 = 0.543	1.174 ± 0.015 mPa·s
312.2 K, 101 kPa, x1 = 0.442	1.042 ± 0.013 mPa·s

Reference: the CheMixHub viscosity set
